# Measured values published in patent US11434490B2, “Fluorogen-binding RNA aptamers” (CENTRE NATIONAL DE LA RECHERCHE SCIENTIFIQUE, priority 2017, dated 2022).
# Columns and labels:
# [1] = Fluorescence enhancement of TO1-Biotin; format: biochemical; conditions: ligand TO1-B; calculated relative to wt from the binding titration
# Procedure: (§1) The bandwidth for all measurements was 1.5 nm for all experiments. Measurements were performed in a 0.2 cm path length cuvette in a background of 20 mM MOPS pH 7.0, 150 mM KCl, 10 μM EDTA. Fluorescence readings were taken in the absence of RNA at a ligand concentration of 0.82 μM. A concentrated, annealed stock of RNA was then added to the cuvette resulting in a final concentration of 2 μM RNA and allowed to equilibrate for 1 minute prior to taking an emission reading. Fluorescence enhancement was determined by dividing the fluorescence signal of ligand in the presence of RNA by the fluorescence signal in the absence of RNA corrected for the background of the instrument.
# [2] = Fluorescence titration, binding affinity for TO1-Biotin; conditions: for Kd: ligand TO1-B (TO1-Biotin)
# Text: (§2) FIG. 2|RNA Mango I, II, III and IV core sequences and their properties. (a) Color coded alignment of RNA Mango I, II, III and IV. G residues in yellow are protected from DMS cleavage (data from panel d) when folded in the presence of fluorophore. Quadruplex stacks and their associated propeller sequences are numbered 1 through 4. The GAAA isolation motif of Mango I, together with two adenines essential for binding, are shown in green and red respectively. Purple shading represents a flanking stem region common for all four Mango aptamers. Schematic: A tertiary structure schematic of Mango I, showing tier 1, 2 and 3 of its quadruplex structure (T1, T2 and T3) and color-coded as in (a). […] Bottom: Top view of the Mango I core (PBD ID: 5V3F), showing the T3 tier of the quadruplex and relevant propeller residues, color coding matches the schematic and panel a. […] KD values are shown next to each titration. (c) Same as for panel b but using 20 nM TO3-Biotin. Data for panels b and c have been normalized such that Mango I has a maximum fluorescence of 1. Error bars are standard deviation of three replicates. (d) DMS chemical protection patterns for the four Mango aptamers. 3′ end-labelled RNA (terminal ^32pCp shown as a black asterisk) was subjected to DMS chemical modification followed by reduction by NaBH4 and aniline cleavage as described in the methods. […] Legend: T1—denatured T1 ladder; OH—partial alkaline hydrolysis ladder; (−) DMS—denatured reaction with ddH2O added in place of DMS; 80° C.
# (§3) Fluorescence data was gathered using a Varian Cary Eclipse Spectrophotometer unless otherwise stated. […] Fluorescence was measured at the maximum excitation and emission wavelengths of each complex (FIG. 13).
# Where F([RNA]) is the fluorescence as a function of RNA concentration [RNA], Fmax is the maximal fluorescence of the bound complex and Funbound the fluorescence of the unbound fluorophore. When the fluorescence of Funbound was undetectable, it was set to zero.
# (§4) Fluorescence readings were recorded using a Varian Cary Eclipse Spectrophotometer set to measure at the maximum excitation and emission wavelengths of the Mango II aptamer dye complex. Fluorescence titrations were performed in Mango selection buffer (WB: 140 mM KCl, 1 mM MgCl2, 10 mM NaH2PO4 pH 7.2, 0.05% Tween-20).
# [3] = cited from earlier work
# [4] = Fluorescence enhancement of TO3-Biotin; format: biochemical; conditions: ligand TO3-B; calculated relative to wt from the binding titration
# Procedure: as §1
# [5] = Fluorescence titration, binding affinity for TO3-Biotin; conditions: ligand TO3-B (TO3-Biotin)
# Text: as §2, §3
# Or to the following equation for TO3-Biotin and NMM experiments: F([RNA])=Fmax[RNA]/(KD+[RNA])+Funbound (Eq. 2) Fmax was determined using Eq. 1 or Eq. 2 as appropriate. Temperature Dependent Fluorescence and UV Melting Curves
# as §4
# HEK293T cells = experiment: Cellular imaging of transfected Mango tagged RNAs; format: cell-based; conditions: fixed cells
# Procedure: HEK293T cells were grown in Dulbecco Modified Eagle's Medium containing 10% Fetal Bovine Serum, 2 mM D-Glucose, 2 mM L-Glutamine, 1 mM Sodium Pyruvate and 100 U/ml Penicillin/Streptomycin (Thermo Fisher) and maintained at 37° C. with 5% CO2 in a humidified incubator. Cells used for imaging were cultured in Ibidi glass bottomed 8-well chamber slides (Ibidi GmbH).
# RNA was transfected directly into 8-well chamber slides using the Lipofectamine-based CRISPRMAX reagent following the manufacturers guidelines (Invitrogen). Initially 125 nM RNA containing 10 mM Sodium Phosphate buffer (pH 7.2), 100 mM KCl and 1 mM MgCl2 was incubated at room temperature followed by a 1:1 dilution in OptiMEM prior to transfection. The RNA transfected was incubated at 37° C. for 1 hour in complete growth medium.
# Cells were fixed in PBS containing 4% paraformaldehyde for 10 min on ice (Thermo Fisher) followed by permeabilization in 0.2% Triton X-100 for 10 min at room temperature. Cells were first blocked (2% BSA in PBS) for 30 min followed by primary antibody (1:50-1:500 dilutions) incubation for 120 min in blocking solution.
# Primary antibodies used here were: Anti-Ribosomal Protein S6 (MAB5436, R&D Systems), Anti-ATP5B (ab14730, Abcam), Anti-GW182 (ab7052, Abcam), Anti-EEA-1 (ab70521, Abcam), Anti-LSm3 (NBP2-14206, Novus Biologicals), Anti-TIAR (sc-398372, Santa Cruz). Secondary antibodies used were Donkey Anti-mouse and Donkey Anti-Rabbit Alexa Fluor 680 (Molecular Probes). Primary antibodies were washed three times for 20 min each in blocking solution followed by incubation with secondary antibody at 1:500 dilution for 60 min, which was subsequently washed as above.
# To visualize the nuclear boundary in live cells, a plasmid expressing a fluorescently tagged histone protein (EBFP2-H2B-6, Addgene plasmid 55243) was transfected using FuGene 6 (Promega) 24 h prior to RNA transfection. […] Following incubation of the RNA transfection, the cells were washed once with PBS and replaced with live-cell imaging media (Fluorobrite DMEM supplemented with 20 mM HEPES, Invitrogen). Live and fixed cell images were taken using a Zeiss Elyra wide-field microscope by exciting at 405 nm (Blue), 488 nm (Green) and 642 nm (Far-Red) and detecting at 420-480 nm, 495-550 nm and >650 nm, respectively. Live cells were maintained at 37° C. with 5% CO2 in a stage top incubator (Tokai Hit). Images were processed using FIJI and spot detection analysis was performed on each maximum projection by the spot detector plugin in the ICY image analysis software, which detects significant foci with a pixel area 3×3 pixels.
# [6] = Salt dependence of Mango/TO1-Biotin fluorescence: Mg2+ titration; conditions: in the presence of potassium; Mg2+ 256 mM
# Procedure: (§5) FIG. 10|Salt dependence of new Mango variants. Dependence of fluorescence of each Mango for (a) K^+, (b) Na^+ in place of K^+, and (c) Mg^2+ ions in a buffer containing 140 mM K^+. […] 10 mM Tris buffer (pH 7.2) was used in place of phosphate of the WB buffer to avoid monovalent counter ions. Color-coding is as follows: Black—Mango I, Blue—Mango II, Green—Mango III, Orange—Mango IV. Hill coefficients are fitted to dark points. Points in lighter shade have been excluded from the fit. Error bars are standard deviations of three replicates.
# [7] = Formaldehyde resistance assay; format: physicochemical; conditions: in vitro, TO1-Biotin
# Procedure: FIG. 15|Effect of formaldehyde on Mango fluorescence. […] In (b) RNA is incubated with the corresponding amounts of formaldehyde first for one hour, then TO1-Biotin is added. Data for each panel is normalized to RFU at the 0% formaldehyde, 0 min point.
# RNA Mango aptamers were incubated with TO1-Biotin in WB buffer for at least one hour until equilibrium fluorescence was reached. […] Fluorescence was measured as a kinetic run at a rate of 2 readings per minute using a Varian Cary Eclipse Fluorescence Spectrophotometer, ex/em=510±2.5/535±5 nm.
# [8] = Salt dependence of Mango/TO1-Biotin fluorescence: K+ titration; format: binding; conditions: 25 nM RNA, 50 nM TO1-Biotin, 10 mM Tris pH 7.2
# Procedure: as §5
# [9] = Salt dependence of Mango/TO1-Biotin fluorescence: Na+ in place of K+; format: binding
# Procedure: as §5
# [10] = Photobleaching under constant illumination; conditions: identical illumination conditions, on average
# Procedure: FIG. 16|Formation of 5S-Mango foci and their dynamics in live cells. (a) 5S-Mango IV imaged post cell fixation at 5, 15, 30 and 60 mins after transfection using Lipofectamine based CRISPRMAX transfection reagent. […] (c) Root mean-squared displacement (RMSD) of three observed foci with different diffusive behaviors, fast (Green), slow (Blue) and static (Red) shown in Video 3. Scale bars are 10 μm and arrows indicate foci of interest. (d) Normalized photobleaching traces of 5S-F30-Mango I and IV compared to 5S-F30-dBroccoli under constant illumination with an exposure time of 200 ms. Photobleaching half-lives are stated in the table adjacent and were calculated from an exponential fit of each curve.
# [11] = Brightness and photophysics of Mango fluorophore complexes; format: physicochemical
# Text: as §2
# FIG. 13|Photophysics: excitation/emission. (a) Excitation (dark curve) and emission (light curve) spectra of each Mango. All Mangos have Δex max=510 nm and Δem max=535 nm. Color-coding is as follows: Black—Mango I, Blue—Mango II, Green—Mango III, Red—Mango IV.
# as §3
compound,measurement,setting,value
Mango II - A12U: Mango-II point mutant; SEQ ID NO: 6908 (GGCACGUACGAAGGUGAGGAGAGGAAGAGGAGAGUACGUGC; chemistry not given here),FIE (fluorescence enhancement) †,[1],1342 †
same,Kd,[2],0.0004 ± 7e-05 µM
"CN1C(=Cc2cc[n+](C)c3ccccc23)Sc2ccccc21 [TO1, Thiazole Orange]",fluorescence quantum yield ϕ,[3]; aqueous solution,2×10^−4
same,intracellular half-life,[3],short intracellular half-life
same,membrane permeability,[3],plasma and nuclear membrane permeability
same,fluorescence quantum yield,[3]; inserted into double-stranded helical nucleic acids,0.11
Mango II - A22G: Mango-II point mutant; SEQ ID NO: 6907 (GGCACGUACGAAGGAGAGGAGAGGGAGAGGAGAGUACGUGC; chemistry not given here),FIE (fluorescence enhancement) †,[4],52 †
same,FIE (fluorescence enhancement) †,[1],1224 †
same,Kd,[5],0.0076 ± 0.0037 µM
same,Kd,[2],0.0064 ± 0.0015 µM
Mango II - A22C: Mango-II point mutant; SEQ ID NO: 6906 (GGCACGUACGAAGGAGAGGAGAGGCAGAGGAGAGUACGUGC; chemistry not given here),FIE (fluorescence enhancement) †,[4],37 †
same,FIE (fluorescence enhancement) †,[1],1407 †
same,Kd,[5],0.0051 ± 0.0014 µM
same,Kd,[2],0.0009 ± 0.0002 µM
5S-F30-Mango IV: 5S rRNA tagged with Mango IV in F30 scaffold; SEQ ID NO: 6894,foci formation after transfection,HEK293T cells,consistently exhibit visible foci
same,fraction of foci that are clearly nuclear,HEK293T cells,~5%
same,fraction of foci that are cytoplasmic,HEK293T cells,~85%
same,mean intensity of foci against 5S-F30-Control background,HEK293T cells; 200 nM TO1-Biotin,two to three-fold higher
Mango II - A15U A20U A25U A26U A31U: Mango-II five-fold mutant; SEQ ID NO: 6910 (GGCACGUACGAAGGUGAGGUGAGGUUGAGGUGAGUACGUGC; chemistry not given here),FIE (fluorescence enhancement) †,[1],1133 †
same,Kd,[2],0.00192 ± 0.00039 µM
Mango II - A15U A20U A25U: Mango-II triple mutant; SEQ ID NO: 6911 (GGCACGUACGAAGGUGAGGUGAGGUAGAGGAGAGUACGUGC; chemistry not given here),FIE (fluorescence enhancement) †,[1],1329 †
same,Kd,[2],0.00076 ± 0.00024 µM
Mango II - A17U: Mango-II point mutant; SEQ ID NO: 6909 (GGCACGUACGAAGGAGAGGUGAGGAAGAGGAGAGUACGUGC; chemistry not given here),FIE (fluorescence enhancement) †,[1],1237 †
same,Kd,[2],0.001 ± 0.00016 µM
Mango-IV: minimal construct engineered from isolate R5-NMM-5,effect of high levels of Mg^2+ on fluorescence,[6],significantly resistant
same,resistance to formaldehyde,[7],substantially resistant to formaldehyde
same,Kd,[8],64 ± 24 mM
same,Hill Coefficients K^+,[8]; * estimated from initial rise of fluorescence,1.5 ± 0.2*
same,TO1-Biotin binding affinity (in words),[2],slightly weaker affinities than Mango-I
same,decrease in binding affinity on replacing CGA with GAA,[2]; Mango-IV sequence variant against Mango-IV,four-fold
same,fluorescence in the presence of sodium ions,[9],limited fluorescence response
same,bleaching half-lives longer than RNA Spinach,[10],10 times
same,brightness of the TO1-Biotin bound complex,[11]; TO1-Biotin complex,"32,000 M^−1cm^−1"
same,brighter than Mango-I,"[11]; TO1-Biotin, FIG. 2b",3 fold
